Read-outs that look alike come from different tables or passages of the source.
What was measured:
[1] = target: T1, Phospho-EGFR (Tyr1068) in H1975 cells (Homo sapiens, UniProt P00533, L858R/T790M); assay: HTRF pEGFR/total EGFR in H1975 cells; type: cell-based; conditions: ratio pEGFR/total EGFR, compound 3 hours
T1 construct: host or cells: H1975
In short: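 Readout is the phospho-EGFR (Tyr1068) to total EGFR HTRF ratio, expressed relative to 0 μM control. Adhered H1975 cells were exposed to compound for 3 hours at 0.1% DMSO, duplicate wells, then lysed for 30 min at room temperature before two-wavelength fluorescence reading.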

[2] = target: T2, Phospho-EGFR (Tyr1068) in H1975 C797S cells (CRISPR-edited EGFR C797S) (Homo sapiens, UniProt P00533, C797S/L858R/T790M); assay: HTRF pEGFR/total EGFR in H1975 C797S cells; type: cell-based; conditions: ratio pEGFR/total EGFR, compound 3 hours
T2 construct: host or cells: H1975 C797S (CRISPR-edited)
In short: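 Readout is the HTRF-measured Tyr1068 phospho-EGFR to total EGFR ratio, normalised to the 0 μM control as percent. Preceding this, CRISPR-edited H1975 C797S cells, plated 24 h earlier, were exposed 3 h to duplicate compound doses in medium with 0.1% DMSO, then lysed on a shaker.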

[3] = target: CtermHisTag-mEGFR Wild type (Homo sapiens, UniProt P00533)
Chain of CtermHisTag-mEGFR Wild type (P00533 whole entry): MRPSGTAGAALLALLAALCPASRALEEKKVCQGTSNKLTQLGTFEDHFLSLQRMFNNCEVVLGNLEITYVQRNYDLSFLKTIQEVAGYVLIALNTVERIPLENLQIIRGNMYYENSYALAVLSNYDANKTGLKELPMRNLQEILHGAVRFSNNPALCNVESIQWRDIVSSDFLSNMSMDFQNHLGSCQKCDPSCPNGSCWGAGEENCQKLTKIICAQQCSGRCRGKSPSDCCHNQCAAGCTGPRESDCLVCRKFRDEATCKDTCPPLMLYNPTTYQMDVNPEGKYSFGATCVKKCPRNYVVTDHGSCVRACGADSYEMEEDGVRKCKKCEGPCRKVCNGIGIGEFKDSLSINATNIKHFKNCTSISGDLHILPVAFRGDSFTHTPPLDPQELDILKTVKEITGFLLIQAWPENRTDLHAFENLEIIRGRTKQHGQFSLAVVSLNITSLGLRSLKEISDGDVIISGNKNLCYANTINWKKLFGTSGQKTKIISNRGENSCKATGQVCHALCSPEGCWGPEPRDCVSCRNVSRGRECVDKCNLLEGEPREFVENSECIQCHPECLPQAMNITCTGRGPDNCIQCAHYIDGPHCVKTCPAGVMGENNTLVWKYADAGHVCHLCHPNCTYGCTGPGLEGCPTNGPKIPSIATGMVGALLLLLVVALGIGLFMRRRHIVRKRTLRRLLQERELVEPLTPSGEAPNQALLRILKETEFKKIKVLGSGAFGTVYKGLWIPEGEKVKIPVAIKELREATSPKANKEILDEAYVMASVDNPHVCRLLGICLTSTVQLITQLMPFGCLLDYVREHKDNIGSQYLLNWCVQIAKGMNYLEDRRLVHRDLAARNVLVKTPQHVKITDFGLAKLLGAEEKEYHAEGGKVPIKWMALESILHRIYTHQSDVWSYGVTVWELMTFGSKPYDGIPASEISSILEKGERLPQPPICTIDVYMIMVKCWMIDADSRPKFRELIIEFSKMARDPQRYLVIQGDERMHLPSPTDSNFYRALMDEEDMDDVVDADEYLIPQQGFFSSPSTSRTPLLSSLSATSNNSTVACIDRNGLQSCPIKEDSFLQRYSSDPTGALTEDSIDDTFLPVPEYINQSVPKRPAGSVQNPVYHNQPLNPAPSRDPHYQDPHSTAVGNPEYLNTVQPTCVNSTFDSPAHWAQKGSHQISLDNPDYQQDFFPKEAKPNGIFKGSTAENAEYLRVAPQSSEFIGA

T1 sequence (P00533 25-1210 T790M/L858R): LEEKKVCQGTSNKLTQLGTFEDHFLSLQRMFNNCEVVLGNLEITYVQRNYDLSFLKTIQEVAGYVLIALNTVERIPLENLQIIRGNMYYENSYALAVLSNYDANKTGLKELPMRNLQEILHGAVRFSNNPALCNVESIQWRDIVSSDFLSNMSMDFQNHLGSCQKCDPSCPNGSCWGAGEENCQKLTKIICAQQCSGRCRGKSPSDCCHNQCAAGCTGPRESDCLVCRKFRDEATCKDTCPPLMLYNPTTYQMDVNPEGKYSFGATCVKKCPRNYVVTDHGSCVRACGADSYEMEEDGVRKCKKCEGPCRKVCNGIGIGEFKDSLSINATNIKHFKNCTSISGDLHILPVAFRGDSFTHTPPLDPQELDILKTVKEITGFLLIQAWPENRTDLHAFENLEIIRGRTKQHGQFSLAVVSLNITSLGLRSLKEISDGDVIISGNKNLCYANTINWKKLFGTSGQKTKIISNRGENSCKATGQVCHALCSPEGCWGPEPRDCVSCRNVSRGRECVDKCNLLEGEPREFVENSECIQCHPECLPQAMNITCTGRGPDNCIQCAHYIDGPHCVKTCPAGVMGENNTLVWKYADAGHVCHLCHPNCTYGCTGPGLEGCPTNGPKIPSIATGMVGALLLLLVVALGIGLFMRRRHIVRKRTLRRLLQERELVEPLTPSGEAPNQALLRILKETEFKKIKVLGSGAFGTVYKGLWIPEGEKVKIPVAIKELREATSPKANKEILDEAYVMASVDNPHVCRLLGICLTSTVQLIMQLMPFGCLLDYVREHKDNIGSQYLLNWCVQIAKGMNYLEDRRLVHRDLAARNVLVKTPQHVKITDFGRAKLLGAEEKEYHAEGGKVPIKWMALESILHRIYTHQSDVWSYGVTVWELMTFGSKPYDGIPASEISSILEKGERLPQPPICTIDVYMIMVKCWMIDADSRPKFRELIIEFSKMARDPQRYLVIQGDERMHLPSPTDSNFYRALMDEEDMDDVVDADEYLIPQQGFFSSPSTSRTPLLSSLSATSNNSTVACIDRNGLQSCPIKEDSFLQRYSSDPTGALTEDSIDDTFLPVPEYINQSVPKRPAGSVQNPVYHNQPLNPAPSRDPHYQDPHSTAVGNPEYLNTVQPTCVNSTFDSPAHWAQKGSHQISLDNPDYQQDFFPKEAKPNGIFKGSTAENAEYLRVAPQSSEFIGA
T2 sequence (P00533 25-1210 T790M/C797S/L858R): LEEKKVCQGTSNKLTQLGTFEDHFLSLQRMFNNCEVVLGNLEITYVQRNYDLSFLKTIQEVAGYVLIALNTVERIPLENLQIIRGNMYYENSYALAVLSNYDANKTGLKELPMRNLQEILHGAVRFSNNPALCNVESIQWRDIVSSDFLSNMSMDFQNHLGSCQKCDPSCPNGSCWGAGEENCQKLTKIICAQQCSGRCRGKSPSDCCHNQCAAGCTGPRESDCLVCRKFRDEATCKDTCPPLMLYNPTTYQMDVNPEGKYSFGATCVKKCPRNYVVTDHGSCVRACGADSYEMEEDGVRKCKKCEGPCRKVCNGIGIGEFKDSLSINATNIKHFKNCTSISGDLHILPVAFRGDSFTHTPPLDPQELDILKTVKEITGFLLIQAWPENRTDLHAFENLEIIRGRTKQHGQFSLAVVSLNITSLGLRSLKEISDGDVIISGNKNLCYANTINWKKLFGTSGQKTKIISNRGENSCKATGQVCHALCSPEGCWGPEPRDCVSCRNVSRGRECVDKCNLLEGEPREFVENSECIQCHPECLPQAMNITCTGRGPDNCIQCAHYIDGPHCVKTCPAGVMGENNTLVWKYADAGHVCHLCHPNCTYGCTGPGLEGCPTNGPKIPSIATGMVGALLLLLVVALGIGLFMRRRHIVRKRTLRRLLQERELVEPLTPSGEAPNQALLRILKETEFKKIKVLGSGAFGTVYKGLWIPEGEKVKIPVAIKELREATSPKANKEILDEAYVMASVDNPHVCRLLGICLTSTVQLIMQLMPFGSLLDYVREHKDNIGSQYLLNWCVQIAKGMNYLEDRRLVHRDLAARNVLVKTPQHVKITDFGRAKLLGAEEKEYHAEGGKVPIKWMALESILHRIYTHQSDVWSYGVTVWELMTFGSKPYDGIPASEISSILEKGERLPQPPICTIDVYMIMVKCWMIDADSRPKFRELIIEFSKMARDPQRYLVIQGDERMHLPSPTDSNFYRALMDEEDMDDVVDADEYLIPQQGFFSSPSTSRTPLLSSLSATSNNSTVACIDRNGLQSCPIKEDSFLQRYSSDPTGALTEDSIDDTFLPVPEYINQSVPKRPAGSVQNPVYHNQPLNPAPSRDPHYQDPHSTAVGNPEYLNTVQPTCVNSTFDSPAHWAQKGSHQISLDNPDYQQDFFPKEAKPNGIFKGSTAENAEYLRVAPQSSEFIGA

For `C#Cc1cc(=O)n(C2CCCC2)c2nc(Nc3cccc(N(C)[C@H]4C[C@@H](CS(C)(=O)=O)C4)c3)ncc12` [Example 203], the IC50 [1] was > 3000 nM, the IC50 [2] was > 3000 nM and the IC50 [3] was < 1000 nM.
`CC(C)[Si](C#Cc1cc(=O)n2c3nc(ncc13)Nc1ccc(N3CCCN(C)CC3)c(c1)NC(=O)CCC2)(C(C)C)C(C)C` showed a ring closure, isolated yield (from CC(C)[Si](C#Cc1cc(=O)[nH]c2nc(Nc3ccc(N4CCCN(C)CC4)c(NC(=O)CCCO)c3)ncc12)(C(C)C)C(C)C, other bond, 13-membered ring, PPh3/DEAD, THF, 31.7 mM) of 41%.
`CC(C)[Si](C#Cc1cc(=O)n2c3nc(ncc13)Nc1ccc(N3CCN(C)CC3)c(c1)OCCC[C@H]2C)(C(C)C)C(C)C` gave a ring closure, isolated yield (from CC(C)[Si](C#Cc1cc(=O)[nH]c2nc(Nc3ccc(N4CCN(C)CC4)c(OCCC[C@H](C)O)c3)ncc12)(C(C)C)C(C)C, other bond, 13-membered ring, PPh3/DIAD, THF, 24.2 mM) of 18%.
“3^4-(4-Methylpiperazin-1-yl)-1^5-((triisopropylsilyl)ethynyl)-1^7,1^8-dihydro-2,6-diaza-1(2,8)-pyrido[2,3-d]pyrimidina-3(1,3)-benzenacyclooctaphane-1^7,7-dione” gave a ring closure, isolated yield (other bond, 13-membered ring, PPh3/DEAD, DCM, 130.0 mM) of 38%.
Compound `CC(C)[Si](C#Cc1cc(=O)n2c3nc(ncc13)Nc1ccc(N3CCN(C)CC3)c(c1)OCCCCC2)(C(C)C)C(C)C` has a ring closure, isolated yield (from CC(C)[Si](C#Cc1cc(=O)[nH]c2nc(Nc3ccc(N4CCN(C)CC4)c(OCCCCCO)c3)ncc12)(C(C)C)C(C)C, other bond, 14-membered ring, PPh3/DIAD, THF, 24.3 mM) of 22%.
With “5-Methyl-3^4-(4-methylpiperazin-1-yl)-1^5-((triisopropylsilyl)ethynyl)-1^7,1^8-dihydro-2,5-diaza-1(2,8)-pyrido[2,3-d]pyrimidina-3(1,3)-benzenacyclooctaphane-1^7,6-dione” the ring closure, isolated yield (other bond, 13-membered ring, PPh3/DEAD, THF, 158.0 mM) was 75%.
In the case of `CC(C)[Si](C#Cc1cc(=O)n2c3nc(ncc13)Nc1ccc(N3CCN(C)CC3)c(c1)S(=O)(=O)NCCC2)(C(C)C)C(C)C`, the ring closure, isolated yield (from CC(C)[Si](C#Cc1cc(=O)[nH]c2nc(Nc3ccc(N4CCN(C)CC4)c(S(=O)(=O)NCCCO)c3)ncc12)(C(C)C)C(C)C, other bond, 13-membered ring, PPh3/DIAD, THF, 24.3 mM) is reported as 15%.
With `CC(C)[Si](C#Cc1cc(=O)n2c3nc(ncc13)Nc1cccc(c1)OC[C@H]1CC[C@H](C1)C2)(C(C)C)C(C)C` the ring closure, isolated yield (from CC(C)[Si](C#Cc1cc(=O)[nH]c2nc(Nc3cccc(OC[C@H]4CC[C@@H](CO)C4)c3)ncc12)(C(C)C)C(C)C, other bond, 14-membered ring, PPh3/DIAD, THF, 183.0 mM) was 26%.
Work on `CC(C)[Si](C#Cc1cc(=O)n2c3nc(ncc13)Nc1cccc(c1)COCC=CC2)(C(C)C)C(C)C` yielded a ring closure, isolated yield (from CC(C)[Si](C#Cc1cc(=O)[nH]c2nc(Nc3cccc(COC/C=C\CO)c3)ncc12)(C(C)C)C(C)C, other bond, 14-membered ring, PPh3/DIAD, THF, 24.0 mM) of 56%.
“3^4-(4-Methylpiperazin-1-yl)-1^5-((triisopropylsilyl)ethynyl)-1^7,1^8-dihydro-4-oxa-2-aza-1(2, 8)-pyrido[2,3-d]pyrimidina-3(1,3)-benzenacyclodecaphan-1^7-one” gave a ring closure, isolated yield (other bond, 15-membered ring, PPh3/DEAD, THF, 158.0 mM) of 41%.
Work on “3^4-(4-methylpiperazin-1-yl)-1^5-((triisopropylsilyl)ethynyl)-1^7,1^8-dihydro-6-oxa-2-aza-1(2, 8)-pyrido[2,3-d]pyrimidina-3(1,3)-benzenacyclooctaphan-1^7-one” yielded a ring closure, isolated yield (other bond, 13-membered ring, PPh3/DEAD, THF, 82.8 mM) of 77%.
With `Cc1c(C#C[Si](C(C)C)(C(C)C)C(C)C)c2cnc3nc2n(c1=O)CCCCCOc1cc(ccc1N1CCN(C)CC1)N3` the ring closure, isolated yield (from Cc1c(C#C[Si](C(C)C)(C(C)C)C(C)C)c2cnc(Nc3ccc(N4CCN(C)CC4)c(OCCCCCO)c3)nc2[nH]c1=O, other bond, 14-membered ring, PPh3/DEAD, THF, 94.8 mM) was 51%.
With `CC(C)[Si](C#Cc1cc(=O)n2c3nc(ncc13)Nc1ccc(N3CCN(C)CC3)c(c1)OCCCC2)(C(C)C)C(C)C` the ring closure, isolated yield (from CC(C)[Si](C#Cc1cc(=O)[nH]c2nc(Nc3ccc(N4CCN(C)CC4)c(OCCCCO)c3)ncc12)(C(C)C)C(C)C, other bond, 13-membered ring, PPh3/DIAD, THF, 25.0 mM) was 42%.
`CC1CCCCOc2cc(ccc2N2CCN(C)CC2)Nc2ncc3c(C#C[Si](C(C)C)(C(C)C)C(C)C)cc(=O)n1c3n2` (stereo not shown) showed a ring closure, isolated yield (from CC(O)CCCCOc1cc(Nc2ncc3c(C#C[Si](C(C)C)(C(C)C)C(C)C)cc(=O)[nH]c3n2)ccc1N1CCN(C)CC1, other bond, 14-membered ring, PPh3/DIAD, THF, 24.0 mM) of 19%.
For `CC(C)[Si](C#Cc1cc(=O)n2c3nc(ncc13)Nc1ccc(N3CCN(C)CC3)c(c1)COCCC2)(C(C)C)C(C)C`, the ring closure, isolated yield (from CC(C)[Si](C#Cc1cc(=O)[nH]c2nc(Nc3ccc(N4CCN(C)CC4)c(COCCCO)c3)ncc12)(C(C)C)C(C)C, other bond, 13-membered ring, PPh3/DIAD, THF, 24.0 mM) was 29%.
“1^6-methyl-3^4-(4-methylpiperazin-1-yl)-1^5-((triisopropylsilyl)ethynyl)-1^7,1^8-dihydro-4-oxa-2-aza-1(2,8)-pyrido[2,3-d]pyrimidina-3(1,3)-benzenacyclooctaphan-1^7-one” showed a ring closure, isolated yield (other bond, 13-membered ring, PPh3/DIAD, THF, 107.0 mM) of 56%.
In the case of `C=Cc1c(-c2ccccc2Cl)c(=O)n(C)c2nc(Nc3ccc(N4CCN(C)CC4)cc3OC)ncc12` [Example 171, 6-(2-chlorophenyl)-5-ethenyl-2-{[2-methoxy-4-(4-methylpiperazin-1-yl)phenyl]amino}-8-methylpyrido[2,3-d]pyrimidin-7-one], the IC50 [1] is reported as > 3000 nM and the IC50 [3] is reported as > 10000 nM.
`CC(C)[Si](C#Cc1cc(=O)n2c3nc(ncc13)Nc1ccc(N3CCN(C)CC3)c(c1)CC(=O)NCC2)(C(C)C)C(C)C` gave a ring closure, isolated yield (from CC(C)[Si](C#Cc1cc(=O)[nH]c2nc(Nc3ccc(N4CCN(C)CC4)c(CC(=O)NCCO)c3)ncc12)(C(C)C)C(C)C, other bond, 13-membered ring, PPh3/DIAD, THF, 24.0 mM) of 43%.
Work on `CC(C)[Si](C#Cc1cc(=O)n2c3nc(ncc13)Nc1cccc(c1)OCCC2)(C(C)C)C(C)C` yielded a ring closure, isolated yield (from CC(C)[Si](C#Cc1cc(=O)n(CCCO)c2nc(Nc3cccc(O)c3)ncc12)(C(C)C)C(C)C, ether bond, 12-membered ring, PPh3/DIAD, THF, 52.0 mM) of 31%.

Source: patent publication US20260137703A1, “2-AMINO-PYRIDO[2,3-D]PYRIMIDIN-7(8H)-ONE AND 7-AMINO-1-PYRIMIDO[4,5-D]PYRIMIDIN-2(1 H)-ONE DERIVATIVES AS EGFR INHIBITORS FOR THE TREATMENT OF CANCER” (Cancer Research Technology Limited, priority 2022, published 2026)
